Source: US5143923A, “Benzoisothiazole- and benziosoxazole-3-carboxamides” (Hoechst-Roussel Pharmaceuticals Inc., priority 1991, dated 1992)
Structures can show the parent of a compound that is named as a salt. Where two headings read alike, the source gives them in different places.

Legend:
[1] = system: apomorphine-induced climbing; assay: Inhibition of apomorphine-induced climbing, climbing mice assay (antipsychotic activity); format: in vivo, CK-1 male mice; conditions: for ED50: Mus musculus, ip, read-out: Antipsychotic Activity ED50
Protocol: The subject CK-1 male mice (23-27 grams) are group-housed under standard laboratory conditions. The mice are individually placed in wire mesh stick cages (4"×4"10") and are allowed one hour for adaptation and exploration of the new environment.
For evaluation of climbing, 3 readings are taken at 10, 20 and 30 minutes after apomorphine administration according to the following scale: […]
Mice consistently climbing before the injection of apormorphine are discarded.
With full-developed apomorphine climbing, the animals are hanging onto the cage walls, rather motionless, over longer periods of time. By contrast, climbs due to mere motor stimulation usually only last a few seconds.
The climbing scores are individually totaled (maximal score; 6 per mouse over 3 readings) and the total score of the control group (vehicle intraperitioneally-apomorphine subcutaneously) is set to 100%.

[2] = system: apomorphine induced stereotypy; assay: Inhibition of apomorphine induced stereotypy assay (extrapyramidal side effect potential); format: in vivo, male Wistar rats
Protocol: Potential for undersible extrapyramidal side effect activity is determined in the inhibition of apormorphine stereotypy assay by methods similar to those described by N. E. Anden, et al., J. Pharma.
Drugs are prepared using distilled water and, if insoluble, a suitable surfactant is added. The route of administration may be varied and the dosage volume is 10 ml/kg. For a primary screen, a group size of six is used. Drug is administered one hour prior to scoring and the animals are placed in individual clear plastic cages (24×14×13 cm). The control group receives vehicle. Apomorphine hydrochloride solution is prepared at a concentration of 15 mg/10 ml in a 0.03% ascorbic acid stock solution (30 mg of ascorbic acid in 100 ml of 1% saline) to increase the stability of the apomorphine hydrochloride while in solution. […] Fifty minutes after drug dosing, stereotypic behavior is noted. Stereotypic activity is defined as sniffing, licking or chewing behavior that occurs in a repetitive manner and is rated as follows: Constant sniffing, licking or chewing without interruption; the animal is considered protected if this behavior is interrupted.
The percent effectiveness of a drug is determined by the number of animals protected in each group.
A dose-response is run in the same manner as a primary screen except that a group size of 10 is used and the animals are dosed in a randomized manner. One group receives vehicle. ED50 for stereotypy are calculated by means of probit analysis.

[3] = Rattus norvegicus, read-out: % Inhibition of apomorphine induced stereotypy
[4] = mice, compound intraperitoneally 30 min before apomorphine 1.5 mg/kg s.c.

## O=C(CCCN1CCC(O)(c2ccc(Cl)cc2)CC1)c1ccc(F)cc1 [Haloperidol, reference compound]
[1]
  ED50: 0.11 mg/kg
[2]; [3]
  inhibition at 0.2 mg/kg: 50%

## CN(CCCCN1CCN(c2csc3cc(F)ccc23)CC1)C(=O)c1nsc2ccccc12.Cl [N-Methyl-N-[4-(1-(6-fluorobenzo[b]thiophen-3-yl)-4-piperazinyl)butyl]-1,2-benzisothiazol-3-carboxamide hydrochloride]
[1]
  ED50: 4.5 mg/kg
[2]; [3]
  inhibition at 40 mg/kg: 100%

## CN(CCCCN1CCN(c2nsc3ccccc23)CC1)C(=O)c1nsc2ccccc12 [N-Methyl-N-[4-(1-(1,2-benzisothiazol-3-yl)-4-piperazinyl)butyl]-1,2-benzisothiazole-3-carboxamide hydrochloride]
[2]; [3]
  inhibition at 40 mg/kg: 100%

## CCN1CCCC1CNC(=O)c1cc(S(N)(=O)=O)ccc1OC (centres unmarked) [Sulpiride, reference compound]
[1]; [4]
  ED50: 4.5 mg/kg

## N-[2-(1-(4-Fluorobenzoyl)-4-piperidinyl)ethyl]-1,2-benzisothiazole-3-carboxamide hydrochloride hemihydrate
[1]; [4]
  Antipsychotic Activity ED50: 3.6 mg/kg
[2]; rats, dose 20 mg/kg body wt.
  % Inhibition of apomorphine induced stereotypy: 67%

## Cl.O=C(NCCN1CCN(c2csc3cc(F)ccc23)CC1)c1noc2ccccc12 [N-[2-(1-(6-fluorobenzo[b]thiophen-3-yl)-4-piperazinyl)ethyl]-1,2-benzisoxazole-3-carboxamide hydrochloride]
[1]
  ED50: 4.9 mg/kg
[2]; [3]
  inhibition at 80 mg/kg: 0%

## COc1ccccc1N1CCN(CCNC(=O)c2nsc3ccccc23)CC1.Cl.Cl [N-[2-(1-(2-Methoxyphenyl)-4-piperazinyl)ethyl]-1,2-benzisothiazole-3-carboxamide dihydrochloride]
[1]
  ED50: 6.3 mg/kg
[2]; [3]
  inhibition at 51.8 mg/kg: 50%

## CN(CCCCN1CCN(c2csc3cc(F)ccc23)CC1)C(=O)c1noc2ccccc12.Cl [N-Methyl-N-[4-(1-(6-fluorobenzo[b]thiophen-3-yl)-4-piperazinyl)butyl]-1,2-benzisoxazole-3-carboxamide hydrochloride]
[1]
  ED50: 5 mg/kg
[2]; [3]
  inhibition at 52 mg/kg: 50%

## Cl.O=C(NCCCCN1CCN(c2nsc3ccccc23)CC1)c1nsc2ccccc12 [N-[4-(1-(1,2-Benzisothiazol-3-yl)-4-piperazinyl)butyl]-1,2-benzisothiazole-3-carboxamide hydrochloride]
[1]
  ED50: 8.3 mg/kg
[2]; [3]
  inhibition at 40 mg/kg: 17%

## CSc1ccc2c(c1)N(CCC1CCCCN1C)c1ccccc1S2 (centres unmarked) [thioridazine, reference compound]
[2]; Rattus norvegicus, rats, dose 16 mg/kg body wt.
  inhibition at 16 mg/kg: 50%

## COc1ccccc1N1CCN(CCCCN(C)C(=O)c2nsc3ccccc23)CC1 [N-Methyl-N-[4-(1-(2-methoxyphenyl)-4-piperazinyl)butyl]-1,2-benzisothiazole-3-carboxamide dihydrochloride hemihydrate]
[1]; mice, compound intraperitoneally 30 min before apomorphine 1.5 mg/kg s.c., dihydrochloride hemihydrate
  Antipsychotic Activity ED50: 4.2 mg/kg
[1]; mice, compound intraperitoneally 30 min before apomorphine 1.5 mg/kg s.c., listed as N-methyl-N-[4-(1-(2-methoxyphenyl)-4-piperazinyl)butyl-1,2-benzisothiazole-3-car, dihydrochloride hemihydrate
  Antipsychotic Activity ED50: 9.6 mg/kg
[2]; Rattus norvegicus, rats, dose 39.2 mg/kg body wt.
  inhibition at 39.2 mg/kg: 50%
